Reference: patent US20250084096A1, “TERT-BUTYL (S)-2-(4-(PHENYL)-6H-THIENO[3, 2-F][1, 2, 4]TRIAZOLO[4, 3-A] [1,4]DIAZEPIN-6-YL) ACETATE DERIVATIVES AND RELATED COMPOUNDS AS BROMODOMAIN BRD4 INHIBITORS FOR TREATING CANCER” (Genentech, Inc., priority 2018, published 2025)

Assays:
BRD4_BD1 bromodomain = BRD4_BD1 bromodomain (Homo sapiens (Human), UniProt O60885); test: BRD4 BD1 biochemical binding assay (TR-FRET); conditions: displacement of biotinylated ligand Compound C
Procedure: (§1) The following assay was used to measure the IC50 for the test compounds ability to bind to the BRD4_BD1 and BRD4_BD2 bromodomains.
(§2) DMSO was backfilled to a final volume of 30 nL as required. […] 1× Assay Buffer was dispensed (5 μL per well) into Minimum Signal control wells. 5 μL of Solution A-3× was dispensed into test wells and Maximum Signal control wells (containing DMSO instead of test compound). Samples were incubated 10 minutes at room temperature. 5 μL of Solution B-3x was dispensed into all wells. Samples were incubated incubate for 10 minutes at room temperature. 5 μL of Solution C-3x was dispensed into all wells. Samples were incubated 40 minutes at room temperature. Plates were read using an Envision (Perkin Elmer) with the following settings: Detection—LANCE Dual Laser 50/200. […] Percentage inhibition was calculated relative to the Minimum Signal control and Maximum Signal control wells. IC50 values were derived by four parameter curve fitting using the Robust method.

BRD4_BD2 bromodomain = BRD4_BD2 bromodomain (Homo sapiens (Human), UniProt O60885); test: BRD4 BD2 biochemical binding assay (TR-FRET); conditions: displacement of biotinylated ligand Compound C
Procedure: as §1, §2

BRD4 [1] = biological target: T1, BRD4 (Homo sapiens (Human), UniProt O60885); test: BRD4 degradation assay in PC3-Steap1 cells; assay type: cell-based; conditions: for Dmax: complete loss = −100%, read-out: Sinf (maximum degradation, percent change in protein level)
Procedure: 2 μL of each sample from the serial dilution was transferred to 98 μL of assay media as an intermediate dilution. 5 μL of intermediate dilution was added to 45 μL of cell plate. Columns 1, 2, 23 and 24 were treated with only 0.2% w/v final concentration of DMSO for data normalization as “neutral controls”. After compound treatment, cell plates were stored in a 37° C. incubator for 4 hours.
Cell plate was incubated at room temperature for 20 minutes. Well contents were aspirated and washed with 100 μL/well PBS 3 times. 50 μL/well of PBS containing 0.5% w/v bovine serum albumen, 0.5% w/v Triton X-100 (Antibody Dilution Buffer) was added to each well. Samples were incubated for 30 minutes. Well contents were aspirated and washed 3 times with 100 μL/well of PBS. PBS was aspirated from the wells.
25 μL per well of BRD4 antibody diluted in buffer was added and incubated overnight at 4° C. On day-3 samples were washed 3 times with 100 μL/well of PBS. […] Samples were incubated for 2 hours at room temperature. Samples were washed 3 times with 100 μL PBS.
(§3) Quantitative fluorescence imaging of BRD4 was carried out using an Opera Phenix High-Content Screening System. […] Hoechst channel was used to identify nuclear region. […] Data analysis was carried out using Genedata Screener, with DMSO and no primary antibody control treated samples being used to define the 0% and 100% changes in BRD4. The dose-response log(inhibitor) vs. response was used to define the inflexion point of curve (IC50) and the plateau of the maximal effect. The Sit value reports degradation as percent change in protein level, so complete loss of the protein target is −100%. Sinf is the maximum degradation achieved, obtained by determining the bottom of a dose-response (where the S-shaped curve levels out).

BRD4 [2] = biological target: T1, BRD4; test: BRD4 degradation assay in EoL-1 cells; assay type: cell-based
Procedure: 2 μL of each sample from the serial dilution was transferred to 98 μL of assay media as an intermediate dilution. 5 μL of each well of the intermediate dilution was added to 45 μL of cell plate. Columns 1, 2, 23 and 24 were treated with only 0.2% final concentration of DMSO for data normalization as “neutral controls”. After compound treatment, cell plates were stored in a 37° C. incubator for 4 hours.
The cell plate was incubated at room temperature for 20 minutes. Well contents were aspirated and washed with 100 μL/well PBS 3 times. 50 μL/well of PBS (pH7.5) containing 0.5% w/v bovine serum albumen, 0.5% w/v Triton X-100 (Block/Permeabilzation Buffer) was added to each well. Samples were incubated for 20 minutes. Well contents were aspirated and washed 3 times with 100 μL/well of PBS. PBS was aspirated from the well and 50 μL per well of EoL-1 Block Buffer (PBS containing 10% Normal Goat Serum (Abcam #ab7481)) was added to each well. Plates were incubated at room temperature for 30 minutes. Block buffer was decanted from the wells.
25 μL per well of BRD4 antibody diluted in buffer was added and incubated overnight at 4° C. On day-2 samples were washed 3 times with 100 μL/well of PBS. […] Samples were incubated for 2 hours at room temperature. Samples were washed 3 times with 100 μL PBS.
as §3, with “Sinf” for “Sit”

MYC expression = test: Myc mRNA assay in MV-4-11 cells; assay type: cell-based; conditions: for Maximum Inhibition (%) (mean) of MYC expression: 4 hours, QuantiGene 2.0; for IC50: Homo sapiens, MV4-11, 4 hours, QuantiGene 2.0, read-out: Inhibition of MYC expression Average IC50
Procedure: Pharmacologic inhibition of MYC is achievable through targeting BET bromodomains through small molecule binder or degrader mechanisms.
Test compounds diluted in DMSO were transferred to the cell plates, keeping final DMSO concentration consistent at 0.1%, and incubated for 4 hours at 37° C. […] Luminescence was read using an EnVision plate reader (PerkinElmer) and IC50s generated in Genedata Screener using a 4-parameter non-linear regression fit.

[3] = 4 hours, immunofluorescence, read-out: Degradation of BRD4 Average EC50
[4] = read-out: Degradation of BRD4 Average EC50, 4 hours, immunofluorescence

SMILES | IC50 (BRD4_BD1 bromodomain) [nM] | IC50 (BRD4_BD2 bromodomain) [nM] | Dmax (BRD4 [1]; 4 hours) [%] | DC50 (BRD4 [1]; [3]) [nM] | DC50 (BRD4 [2]; [3]) [nM] | Maximum Inhibition (%) (mean) of MYC expression (MYC expression) | IC50 (MYC expression) [nM] | Dmax (BRD4 [2]; EOL1, 4 hours, complete loss = −100%, read-out: Sinf (maximum degradation, percent change in protein level)) [%] | DC50 (BRD4 [1]; [4]) [nM] | DC50 (BRD4 [2]; [4]) [nM]
Cc1sc2c(c1C)C(c1ccc(C#CCN(C)C)cc1)=N[C@@H](CC(=O)OC(C)(C)C)c1nnc(C)n1-2 [Compound 3a, tert-butyl (S)-2-(4-(4-(3-(dimethylamino)prop-1-yn-1-yl)phenyl)-2,3,9-trimethyl-6H-thieno[3,2-f][1,2,4]triazolo[4,3-a][1,4]diazepin-6-yl)acetate] | 14.5 | 20.7 | -41.9 | > 20000 | > 20000 | 78.7 | 11.7 |  |  | 
Cc1sc2c(c1C)C(c1ccc(C#CCN)cc1)=N[C@H](CC(=O)OC(C)(C)C)c1nnc(C)n1-2 [Compound 1b, tert-butyl (R)-2-(4-(4-(3-aminoprop-1-yn-1-yl)phenyl)-2,3,9-trimethyl-6H-thieno[3,2-f][1,2,4]triazolo[4,3-a][1,4]diazepin-6-yl)acetate] | 199 | 272 | -74.5 | 10.5 | 9 | 86.6 | 67.5 | -87 |  | 
CC#Cc1ccc(C2=N[C@@H](CC(=O)OC(C)(C)C)c3nnc(C)n3-c3sc(C)c(C)c32)cc1 [Compound 14a, tert-butyl (S)-2-(2,3,9-trimethyl-4-(4-(prop-1-yn-1-yl)phenyl)-6H-thieno[3,2-f][1,2,4]triazolo[4,3-a][1,4]diazepin-6-yl)acetate] | 18.8 | 20.3 |  |  |  | 73.6 | 97.2 |  | > 20000 | > 20000
CCC#Cc1ccc(C2=N[C@@H](CC(=O)OC(C)(C)C)c3nnc(C)n3-c3sc(C)c(C)c32)cc1 [Compound 13a, tert-butyl (S)-2-(4-(4-(but-1-yn-1-yl)phenyl)-2,3,9-trimethyl-6H-thieno[3,2-f][1,2,4]triazolo[4,3-a][1,4]diazepin-6-yl)acetate] | 23.4 | 28.7 |  |  |  | 71.6 | 162 |  | > 20000 | > 20000
